Experimental data: patent US8324194B2, “Combination therapy for the treatment of cancer” (Incyte Corporation, priority 2005, dated 2012)

How the values were obtained:
[1] = tested on: MCF-7 human breast cancer xenografts; assay: Growth of subcutaneous MCF-7 breast cancer xenograft in mice; type: in vivo; conditions: MCF-7 xenograft; for inhibited tumor cell growth over the control group: nu/nu mice, fulvestrant 5 mg SC once per week for four weeks, mean tumor volume vs control group (a)
Description: Human breast cancer cell line MCF-7 was obtained from American Type Tissue Culture Collection (ATCC, Manassas, Va.). Cells were routinely maintained in media recommended by the ATCC with slight modifications. Cells were kept at 37° C. in a humidified incubator supplied with 5% CO2. MCF-7 cells were kept in Eagle's minimal essential medium (ATCC) supplemented with 10% FBS and 0.01 mg/ml bovine insulin.
Animal studies were performed under Animal Welfare Regulation Guidelines in a facility accredited by the Association for the Assessment and Accreditation of Laboratory Animal Care (AAALAC). Balb/c or CD-1 nu/nu mice (Charles River, Wilmington, Mass.) were injected subcutaneously with logarithmically growing cells suspended in either serum free culture media, or a 1:1 mixture media and Matrigel™ (BD Biosciences). The tumor models required implantation (on the same day or one day prior to cell inoculation) of estradiol pellets (17-β estradiol, 0.72 mg/pellet, 60 day release; Innovative Research of American, Sarasota, Fla.). The time in days after injection of the tumor cells into the mice was measured as “days post-inoculation”.
Subcutaneous implantation of osmotic pumps (obtained from Alzet, Cupertino, Calif.) was performed under isofluorane anesthesia following manufacturer's protocol. Subcutaneous pumps (hereinafter “SC pumps”) were used to deliver a solution of Compound 1, or its inert solvent. Fulvestrant, or its inert solvent, was delivered by subcutaneous injection on the dorsal flanks of the animals. Treatment was usually initiated when mean tumor volumes were approximately 150 mm^3 at the beginning of treatment. Ten test animals were included in each treatment group, (a)-(d).
Tumor size was measured and used to calculate tumor volume for a period of time following the injection of the tumor cells into the mice. Tumor size was measured by using a caliper to measure the length (1) and width (w) of tumors to calculate an approximate volume ((l×w^2)/2). These tumor size measurements and tumor volume calculations were recorded relative to the number of days post-inoculation of the mice with the tumor cells. The frequency of the tumor size measurements varied depending on how quickly the tumors grew in size, with more frequent measurements being taken when the tumors grew quickly. Mean tumor volume was calculated based on the tumor volumes for the ten test animals in each treatment group.
Treatment group (a) was the control group of test animals. […] Tumor size was measured for each test animal as described above and recorded as a function of the number of days post-inoculation of the mice with the MCF-7 breast cancer cells. Mean tumor volume was then calculated for treatment group (a) and plotted against the number of days post-inoculation as shown in FIG. 1. […]

[2] = tested on: BT-474 human breast cancer xenografts; assay: Growth of subcutaneous BT-474 breast cancer xenograft in mice; type: in vivo; conditions: BT-474 xenograft; for inhibited tumor cell growth over the control group: nu/nu mice, Compound 1 60 mg/kg/day SC pump for 14 days, fulvestrant 5 mg SC once per week for four weeks, mean tumor volume vs control group (a); for tumor growth delay (TGD, T-C) to 500 cubic mm by linear regression analysis of tumor growth rate: Compound 1 60 mg/kg/day for 14 days, fulvestrant 5 mg weekly x4, projected time
Description: Human breast cancer cell line BT-474 was obtained from American Type Tissue Culture Collection (ATCC, Manassas, Va.). Cells were routinely maintained in media recommended by the ATCC with slight modifications. Cells were kept at 37° C. in a humidified incubator supplied with 5% CO2. BT-474 cells were grown in RPMI 1640 (Invitrogen) supplemented with 10% fetal bovine serum (FBS), 0.01 mg/ml bovine insulin, 10 mM HEPES and 0.1 mM non-essential amino acids.
Animal studies were performed under Animal Welfare Regulation Guidelines in a facility accredited by the Association for the Assessment and Accreditation of Laboratory Animal Care (AAALAC). Balb/c or CD-1 nu/nu mice (Charles River, Wilmington, Mass.) were injected subcutaneously with logarithmically growing cells suspended in either serum free culture media, or a 1:1 mixture media and Matrigel™ (BD Biosciences). The tumor models required implantation (on the same day or one day prior to cell inoculation) of estradiol pellets (17-βestradiol, 0.72 mg/pellet, 60 day release; Innovative Research of American, Sarasota, Fla.). The time in days after injection of the tumor cells into the mice was measured as “days post-inoculation”.
Subcutaneous implantation of osmotic pumps (obtained from Alzet, Cupertino, Calif.) was performed under isofluorane anesthesia following manufacturer's protocol. Subcutaneous pumps were used to deliver a solution of Compound 1, or its inert solvent. Fulvestrant, or its inert solvent, was delivered by subcutaneous injection on the dorsal flanks of the animals. […] Treatment was usually initiated when mean tumor volumes were approximately 150 mm^3 at the beginning of treatment. Ten test animals were included in each Treatment group, (a)-(d).
Tumor size was measured and used to calculate tumor volume for a period of time following the injection of the tumor cells into the mice. Tumor size was measured by using a caliper to measure the length (l) and width (w) of tumors to calculate an approximate volume ((l×w^2)/2). These tumor size measurements and tumor volume calculations were recorded relative to the number of days post-inoculation of the mice with the tumor cells. […] Mean tumor volume was calculated based on the tumor volumes for the ten test animals in each treatment group.
Treatment group (a) was the control group of test animals. […] Tumor size was measured for each test animal as described above and recorded as a function of the number of days post-inoculation of the mice with the BT-474 breast cancer cells. Mean tumor volume was then calculated for treatment group (a) and plotted against the number of days post-inoculation as shown in FIG. 2. […]

[3] = Compound 1 60 mg/kg/day SC pump for 14 days

SMILES	inhibited tumor cell growth over the control group [1, 3] [%]	calculated tumor growth delay (TGD, T-C) to 1000 cubic mm by linear regression analysis of tumor growth curves ([1]; fulvestrant 5 mg SC weekly x4, alone or with Compound 1 60 mg/kg/day for 14 days, projected time) [days]	inhibited tumor cell growth over the control group [2] [%]	tumor growth delay (TGD, T-C) to 500 cubic mm by linear regression analysis of tumor growth rate [2] [days]	tumor growth delay (TGD, T-C) to 1000 cubic mm, real, not calculated [1, 3] [days]
C[C@]12CC[C@@H]3c4ccc(O)cc4C[C@@H](CCCCCCCCC[S+]([O-])CCCC(F)(F)C(F)(F)F)[C@H]3[C@@H]1CC[C@@H]2O (some centres unmarked) [fulvestrant]	52	63	46	54	
COC(=O)N1CC2(CC2)C[C@H](C(=O)NO)[C@H]1C(=O)N1CCN(c2ccccc2)CC1 [Compound 1, methyl (6S,7S)-7-[(hydroxyamino)carbonyl]-6-[(4-phenylpiperazin-1-yl)carbonyl]-5-azaspiro[2.5]octane-5-carboxylate]	46		33	19	32
